Assay results from patent EP4635500A1, “THERAPEUTIC AGENT FOR BACTERIAL INFECTION” (Sumitomo Pharma Co., Ltd., priority 2022, dated 2024).
≈ marks a conversion by molar mass, not a printed value. Read-outs that look alike come from different tables or passages of the source.

Tested on: Enterobacterales
Test: MIC, broth microdilution, CDC/FDA Antibiotic Resistance Isolate Bank (Example 7, Tables 8, 11, 12)
Format: cell-based
Conditions: for MIC: read-out: MIC

`NCC[C@H](O)C(=O)N[C@@H]1C[C@H](N)[C@@H](O[C@H]2O[C@H](CN)[C@@H](O)[C@H](O)[C@H]2O)[C@H](O)[C@H]1O[C@H]1O[C@H](CO)[C@@H](O)[C@H](N)[C@H]1O` [Amikacin, amikacin] gave an MIC50 (154 strains of Enterobacterales, read-out: MIC50) of 4 µg/mL (≈ 6.83 µM), an MIC90 (154 strains of Enterobacterales, read-out: MIC90) greater than 64 µg/mL and an MIC (Citrobacter freundii, KUB No. 5654, AR Bank # 157) greater than 64 µg/mL. The MIC (Enterobacter cloacae, Enterobacter cloacae KUB No. 5792, AR Bank #448) was 16 µg/mL (≈ 27.3 µM), the MIC (Enterobacter cloacae, Enterobacter cloacae KUB No. 5807, AR Bank #501) was 4 µg/mL (≈ 6.83 µM) and the MIC (Enterobacter cloacae, Enterobacter cloacae KUB No. 5808, AR Bank #502) was 2 µg/mL (≈ 3.42 µM). It also gave an MIC (Enterobacter cloacae, Enterobacter cloacae complex, KUB No. 5661, AR Bank # 164) of 1 µg/mL (≈ 1.71 µM), an MIC (Enterobacter cloacae, Enterobacter cloacae group, KUB No. 5629, AR Bank # 132) of 1 µg/mL (≈ 1.71 µM) and an MIC (Enterobacter cloacae, KUB No. 5529, AR Bank# 32) of 1 µg/mL (≈ 1.71 µM). The MIC (Enterobacter cloacae, KUB No. 5535, AR Bank# 38) was greater than 64 µg/mL, the MIC (Enterobacter cloacae, KUB No. 5547, AR Bank# 50) was 1 µg/mL (≈ 1.71 µM) and the MIC (Enterobacter cloacae, KUB No. 5550, AR Bank# 53) was 64 µg/mL (≈ 109 µM). It also gave an MIC (Enterobacter cloacae, KUB No. 5557, AR Bank# 60) of 1 µg/mL (≈ 1.71 µM), an MIC (Enterobacter cloacae, KUB No. 5562, AR Bank # 65) of 1 µg/mL (≈ 1.71 µM) and an MIC (Enterobacter cloacae, KUB No. 5569, AR Bank # 72) of 1 µg/mL (≈ 1.71 µM). The MIC (Enterobacter cloacae, KUB No. 5570, AR Bank # 73) was 0.25 µg/mL (≈ 0.427 µM), the MIC (Enterobacter cloacae, KUB No. 5590, AR Bank # 93) was 2 µg/mL (≈ 3.42 µM) and the MIC (Enterobacter cloacae, KUB No. 5660, AR Bank # 163) was 4 µg/mL (≈ 6.83 µM). The MIC (Enterobacter cloacae, KUB No. 5761, AR Bank # 365) was 16 µg/mL (≈ 27.3 µM), the MIC (Enterobacter cloacae, KUB No. 5762, AR Bank # 366) was 4 µg/mL (≈ 6.83 µM) and the MIC (Enterobacter cloacae, KUB No. 5763, AR Bank # 367) was 1 µg/mL (≈ 1.71 µM). The MIC (Enterobacter cloacae, KUB No. 5778, AR Bank # 432) was 2 µg/mL (≈ 3.42 µM), the MIC (Enterobacter cloaccae, KUB No. 5651, AR Bank # 154) was 8 µg/mL (≈ 13.7 µM) and the MIC (Enterobacter clooreae, KUB No. 5633, AR Bank # 136) was 2 µg/mL (≈ 3.42 µM). It also gave an MIC (Escherichia coli, Escherichia coli KUB No. 5783, AR Bank #437) of 2 µg/mL (≈ 3.42 µM), an MIC (Escherichia coli, Escherichia coli KUB No. 5794, AR Bank #450) of 2 µg/mL (≈ 3.42 µM) and an MIC (Escherichia coli, Escherichia coli KUB No. 5795, AR Bank #451) of 8 µg/mL (≈ 13.7 µM). It also gave an MIC (Escherichia coli, Escherichia coli KUB No. 5796, AR Bank #452) of 1 µg/mL (≈ 1.71 µM), an MIC (Escherichia coli, Escherichia coli KUB No. 5803, AR Bank #861) of 1 µg/mL (≈ 1.71 µM) and an MIC (Escherichia coli, KUB No. 5558, AR Bank # 61) of 16 µg/mL (≈ 27.3 µM). It also gave an MIC (Escherichia coli, KUB No. 5564, AR Bank # 67) of 2 µg/mL (≈ 3.42 µM), an MIC (Escherichia coli, KUB No. 5566, AR Bank # 69) of 16 µg/mL (≈ 27.3 µM) and an MIC (Escherichia coli, KUB No. 5574, AR Bank # 77) of 1 µg/mL (≈ 1.71 µM). It also gave an MIC (Escherichia coli, KUB No. 5578, AR Bank # 81) of 2 µg/mL (≈ 3.42 µM), an MIC (Escherichia coli, KUB No. 5581, AR Bank # 84) of 0.5 µg/mL (≈ 0.854 µM) and an MIC (Escherichia coli, KUB No. 5582, AR Bank # 85) of 1 µg/mL (≈ 1.71 µM). The MIC (Escherichia coli, KUB No. 5583, AR Bank # 86) was 1 µg/mL (≈ 1.71 µM), the MIC (Escherichia coli, KUB No. 5586, AR Bank # 89) was 1 µg/mL (≈ 1.71 µM) and the MIC (Escherichia coli, KUB No. 5601, AR Bank # 104) was 1 µg/mL (≈ 1.71 µM). It also gave an MIC (Escherichia coli, KUB No. 5611, AR Bank # 114) of 1 µg/mL (≈ 1.71 µM), an MIC (Escherichia coli, KUB No. 5615, AR Bank # 118) greater than 64 µg/mL and an MIC (Escherichia coli, KUB No. 5616, AR Bank # 119) greater than 64 µg/mL. For the same molecule, the MIC (Escherichia coli, KUB No. 5625, AR Bank # 128) was greater than 64 µg/mL, the MIC (Escherichia coli, KUB No. 5634, AR Bank # 137) was 16 µg/mL (≈ 27.3 µM) and the MIC (Escherichia coli, KUB No. 5646, AR Bank # 149) was 2 µg/mL (≈ 3.42 µM). It also gave an MIC (Escherichia coli, KUB No. 5647, AR Bank # 150) of 0.5 µg/mL (≈ 0.854 µM), an MIC (Escherichia coli, KUB No. 5648, AR Bank # 151) of 1 µg/mL (≈ 1.71 µM) and an MIC (Escherichia coli, KUB No. 5659, AR Bank # 162) of 1 µg/mL (≈ 1.71 µM). The MIC (Escherichia coli, KUB No. 5764, AR Bank # 368) was 2 µg/mL (≈ 3.42 µM), the MIC (Escherichia coli, KUB No. 5765, AR Bank # 369) was 2 µg/mL (≈ 3.42 µM) and the MIC (Escherichia coli, KUB No. 5766, AR Bank # 370) was 4 µg/mL (≈ 6.83 µM). The MIC (Escherichia coli, KUB No. 5767, AR Bank # 371) was 0.5 µg/mL (≈ 0.854 µM), the MIC (Escherichia coli, KUB No. 5768, AR Bank # 372) was 2 µg/mL (≈ 3.42 µM) and the MIC (Escherichia coli, KUB No. 5769, AR Bank # 373) was 1 µg/mL (≈ 1.71 µM). It also gave an MIC (Escherichia coli, KUB No. 5770, AR Bank # 374) of 1 µg/mL (≈ 1.71 µM), an MIC (Escherichia coli, KUB No. 5774, AR Bank # 378) of 1 µg/mL (≈ 1.71 µM) and an MIC (Escherichia coli, KUB No. 5779, AR Bank # 433) of 0.5 µg/mL (≈ 0.854 µM). The MIC (Escherichia coli, KUB No. 5780, AR Bank # 434) was 16 µg/mL (≈ 27.3 µM), the MIC (Escherichia coli, KUB No. 5781, AR Bank # 435) was greater than 64 µg/mL and the MIC (Escherichia, KUB No. 57, AR Bank # 436 (row cut off)) was 1 µg/mL (≈ 1.71 µM). The MIC (Klebsiella aerogenes, Enterobacter aerogenes, KUB No. 5559, AR Bank # 62) was 2 µg/mL (≈ 3.42 µM), the MIC (Klebsiella aerogenes, Enterobacter aerogenes, KUB No. 5571, AR Bank # 74) was 2 µg/mL (≈ 3.42 µM) and the MIC (Klebsiella aerogenes, Enterobacter aerogenes, KUB No. 5658, AR Bank # 161) was 2 µg/mL (≈ 3.42 µM). The MIC (Klebsiella aerogenes, Enterobacter aerogenes, KUB No. 5777, AR Bank # 431) was 0.5 µg/mL (≈ 0.854 µM), the MIC (Klebsiella oxytoca, KUB No. 5568, AR Bank # 71) was 0.5 µg/mL (≈ 0.854 µM) and the MIC (Klebsiella oxytoca, KUB No. 5644, AR Bank # 147) was 0.5 µg/mL (≈ 0.854 µM). For the same molecule, the MIC (Klebsiella oxytoca, KUB No. 5771, AR Bank # 375) was 4 µg/mL (≈ 6.83 µM), the MIC (Klebsiella oxytoca, KUB No. 5776, AR Bank # 380) was 1 µg/mL (≈ 1.71 µM) and the MIC (Klebsiella ozaenae, KUB No. 5548, AR Bank# 51) was greater than 64 µg/mL. It also gave an MIC (Klebsiella ozaenae, KUB No. 5593, AR Bank # 96) of 8 µg/mL (≈ 13.7 µM), an MIC (Klebsiella pnemnonine, KUB No. 5758, AR Bank # 362) of 32 µg/mL (≈ 54.6 µM) and an MIC (Klebsiella pneumoniae, KUB No. 55, AR Bank# 47) of 32 µg/mL (≈ 54.6 µM). The MIC (Klebsiella pneumoniae, KUB No. 5531, AR Bank# 34) was 1 µg/mL (≈ 1.71 µM), the MIC (Klebsiella pneumoniae, KUB No. 5536, AR Bank# 39) was 4 µg/mL (≈ 6.83 µM) and the MIC (Klebsiella pneumoniae, KUB No. 5537, AR Bank# 40) was 32 µg/mL (≈ 54.6 µM). The MIC (Klebsiella pneumoniae, KUB No. 5538, AR Bank# 41) was greater than 64 µg/mL, the MIC (Klebsiella pneumoniae, KUB No. 5540, AR Bank# 43) was 1 µg/mL (≈ 1.71 µM) and the MIC (Klebsiella pneumoniae, KUB No. 5541, AR Bank# 44) was 16 µg/mL (≈ 27.3 µM). For the same molecule, the MIC (Klebsiella pneumoniae, KUB No. 5543, AR Bank# 46) was 16 µg/mL (≈ 27.3 µM), the MIC (Klebsiella pneumoniae, KUB No. 5546, AR Bank# 49) was greater than 64 µg/mL and the MIC (Klebsiella pneumoniae, KUB No. 5563, AR Bank # 66) was 8 µg/mL (≈ 13.7 µM). For the same molecule, the MIC (Klebsiella pneumoniae, KUB No. 5565, AR Bank # 68) was 64 µg/mL (≈ 109 µM), the MIC (Klebsiella pneumoniae, KUB No. 5572, AR Bank # 75) was greater than 64 µg/mL and the MIC (Klebsiella pneumoniae, KUB No. 5573, AR Bank # 76) was 8 µg/mL (≈ 13.7 µM). The MIC (Klebsiella pneumoniae, KUB No. 5576, AR Bank # 79) was greater than 64 µg/mL, the MIC (Klebsiella pneumoniae, KUB No. 5577, AR Bank # 80) was 4 µg/mL (≈ 6.83 µM) and the MIC (Klebsiella pneumoniae, KUB No. 5584, AR Bank # 87) was 1 µg/mL (≈ 1.71 µM). The MIC (Klebsiella pneumoniae, KUB No. 5594, AR Bank # 97) was 64 µg/mL (≈ 109 µM), the MIC (Klebsiella pneumoniae, KUB No. 5595, AR Bank # 98) was 32 µg/mL (≈ 54.6 µM) and the MIC (Klebsiella pneumoniae, KUB No. 5603, AR Bank # 106) was greater than 64 µg/mL. It also gave an MIC (Klebsiella pneumoniae, KUB No. 5604, AR Bank # 107) greater than 64 µg/mL, an MIC (Klebsiella pneumoniae, KUB No. 5606, AR Bank # 109) of 8 µg/mL (≈ 13.7 µM) and an MIC (Klebsiella pneumoniae, KUB No. 5609, AR Bank # 112) of 32 µg/mL (≈ 54.6 µM). The MIC (Klebsiella pneumoniae, KUB No. 5610, AR Bank # 113) was 32 µg/mL (≈ 54.6 µM), the MIC (Klebsiella pneumoniae, KUB No. 5612, AR Bank # 115) was 0.5 µg/mL (≈ 0.854 µM) and the MIC (Klebsiella pneumoniae, KUB No. 5614, AR Bank # 117) was 32 µg/mL (≈ 54.6 µM). It also gave an MIC (Klebsiella pneumoniae, KUB No. 5617, AR Bank # 120) of 32 µg/mL (≈ 54.6 µM), an MIC (Klebsiella pneumoniae, KUB No. 5622, AR Bank # 125) of 32 µg/mL (≈ 54.6 µM) and an MIC (Klebsiella pneumoniae, KUB No. 5623, AR Bank # 126) of 4 µg/mL (≈ 6.83 µM). The MIC (Klebsiella pneumoniae, KUB No. 5626, AR Bank # 129) was 32 µg/mL (≈ 54.6 µM), the MIC (Klebsiella pneumoniae, KUB No. 5632, AR Bank # 135) was 8 µg/mL (≈ 13.7 µM) and the MIC (Klebsiella pneumoniae, KUB No. 5635, AR Bank # 138) was greater than 64 µg/mL. For the same molecule, the MIC (Klebsiella pneumoniae, KUB No. 5636, AR Bank # 139) was greater than 64 µg/mL, the MIC (Klebsiella pneumoniae, KUB No. 5637, AR Bank # 140) was greater than 64 µg/mL and the MIC (Klebsiella pneumoniae, KUB No. 5638, AR Bank # 141) was greater than 64 µg/mL.
